In ChEMBL document CHEMBL1201862, “PubChem BioAssay data set” (2004):
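How tested: cells in 96-well plates exposed to compound for 48 hours at five concentrations. At the GI50, growth is halved.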 Active and inactive are the calls of the source. No stated cut-off is given here; in the data, active = GI50 up to about 1.1 µM and inactive = higher.

Legend:
Test in all cases: NCI tumour cell line growth inhibition, 48 h
[1] = test system: NCI-H226
[2] = test system: EKVX
[3] = test system: HCC 2998
[4] = test system: RXF 393
[5] = test system: SK-MEL-5
[6] = test system: MDA-MB-435
[7] = test system: HCT-15
[8] = test system: DU-145
[9] = test system: PC-3
[10] = test system: NCI-H23
[11] = test system: Malme-3M
[12] = test system: HOP-62
[13] = test system: SF-268
[14] = test system: SN12C
[15] = test system: SW-620
[16] = test system: RPMI-8226
[17] = test system: SNB-75
[18] = test system: K562
[19] = test system: HL-60
[20] = test system: MDA-N

SMILES | GI50 [1] | GI50 [2] | GI50 [3] | GI50 [4] | GI50 [5] | GI50 [6] | GI50 [7] [µM] | GI50 [8] | GI50 [9] | GI50 [10] | GI50 [11] | GI50 [12] | GI50 [13] | GI50 [14] | GI50 [15] | GI50 [16] | GI50 [17] | GI50 [18] | GI50 [19] | GI50 [20]
Cc1ccc(S(=O)(=O)ON2C(=O)c3cccc4cc([N+](=O)[O-])cc(c34)C2=O)cc1 | 54.8 µM (inactive) | > 100 µM (inactive) | 23.8 µM (inactive) | 44.3 µM (inactive) | 69.3 µM (inactive) | 40.3 µM (inactive) | 71 | 89.1 µM (inactive) | > 100 µM (inactive) | > 100 µM (inactive) | 44.2 µM (inactive) | > 100 µM (inactive) | 79.3 µM (inactive) | 81.3 µM (inactive) | 66.1 µM (inactive) | > 100 µM (inactive) | 41.9 µM (inactive) | – | – | –
O=C(Nc1ccc(Cl)cc1)c1cc(S(=O)(=O)Nc2nnc3c(Cl)cc(C(F)(F)F)cn23)c(S)cc1Cl | > 100 µM (inactive) | > 100 µM (inactive) | > 100 µM (inactive) | > 100 µM (inactive) | 96.4 µM (inactive) | 49.9 µM (inactive) | > 100 | > 100 µM (inactive) | 83 µM (inactive) | 59.7 µM (inactive) | > 100 µM (inactive) | 54.5 µM (inactive) | 70 µM (inactive) | 84.5 µM (inactive) | – | > 100 µM (inactive) | – | > 100 µM (inactive) | > 100 µM (inactive) | –
O=C(CCCNc1nc(-c2ccccc2)cs1)c1cccs1 | > 100 µM (inactive) | > 100 µM (inactive) | > 100 µM (inactive) | – | > 100 µM (inactive) | > 100 µM (inactive) | > 100 | – | > 100 µM (inactive) | > 100 µM (inactive) | > 100 µM (inactive) | > 100 µM (inactive) | > 100 µM (inactive) | > 100 µM (inactive) | > 100 µM (inactive) | > 100 µM (inactive) | > 100 µM (inactive) | > 100 µM (inactive) | – | > 100 µM (inactive)
O=C(CN1C(=O)CC(c2ccccc2)(c2ccccc2)C1=O)N1CCN(CCO)CC1 | – | > 100 µM (inactive) | > 100 µM (inactive) | > 100 µM (inactive) | > 100 µM (inactive) | > 100 µM (inactive) | > 100 | > 100 µM (inactive) | > 100 µM (inactive) | > 100 µM (inactive) | – | > 100 µM (inactive) | > 100 µM (inactive) | > 100 µM (inactive) | > 100 µM (inactive) | > 100 µM (inactive) | > 100 µM (inactive) | > 100 µM (inactive) | – | –
Oc1cc(-c2ccc3ccccc3c2)nc2ncccc12 | 23 µM (inactive) | 33.2 µM (inactive) | 9.4 µM (inactive) | – | – | – | 4.18 | 19.9 µM (inactive) | – | 10.7 µM (inactive) | 13.1 µM (inactive) | 21.7 µM (inactive) | 28.1 µM (inactive) | 23.6 µM (inactive) | 5.18 µM (inactive) | 3.15 µM (inactive) | 11.5 µM (inactive) | 2.7 µM (inactive) | – | –
CCOC(=O)CN1C(=O)c2cccc3cc([N+](=O)[O-])cc(c23)C1=O | 10.7 µM (inactive) | 15.2 µM (inactive) | 4.23 µM (inactive) | 1.84 µM (inactive) | 12.4 µM (inactive) | – | 1.65 | – | – | 2.04 µM (inactive) | 2.45 µM (inactive) | 18.2 µM (inactive) | 3.37 µM (inactive) | 4.93 µM (inactive) | 1.59 µM (inactive) | 1.81 µM (inactive) | 10.4 µM (inactive) | 0.459 µM (active) | 0.637 µM (active) | –
O=Cc1ccccc1OCCOc1cc(OCCOc2ccccc2C=O)c(OCCOc2ccccc2C=O)cc1OCCOc1ccccc1C=O | > 54.8 µM (inactive) | 32.1 µM (inactive) | > 100 µM (inactive) | 29.6 µM (inactive) | > 100 µM (inactive) | – | > 66.2 | – | – | 56.5 µM (inactive) | > 100 µM (inactive) | 70.3 µM (inactive) | 52.1 µM (inactive) | > 100 µM (inactive) | 46.5 µM (inactive) | 90.6 µM (inactive) | 8.07 µM (inactive) | 50.4 µM (inactive) | > 78.2 µM (inactive) | –
CC1(C)[C@@H]2C[C@H]1C(Cc1ccc(C[C@H]3c4cc(-c5ccccn5)ncc4[C@H]4C[C@@H]3C4(C)C)cc1)c1cc(-c3ccccn3)ncc12 (some centres undefined) | – | 1.32 µM (inactive) | 1.74 µM (inactive) | 3.58 µM (inactive) | 0.619 µM (active) | 1.13 µM (inactive) | 2.9 | 2.31 µM (inactive) | 0.587 µM (active) | 2.68 µM (inactive) | 4.53 µM (inactive) | 0.538 µM (active) | 0.865 µM (active) | 0.902 µM (active) | 3.46 µM (inactive) | 3.03 µM (inactive) | 59.8 µM (inactive) | 0.649 µM (active) | 0.518 µM (active) | –
CN(C)CCNC(=O)c1cc([N+](=O)[O-])cc2ccc(-c3ccccc3)nc12 | 3.27 µM (inactive) | 24.7 µM (inactive) | 7.36 µM (inactive) | 6.04 µM (inactive) | 4.7 µM (inactive) | – | 7.26 | – | – | 7.67 µM (inactive) | 6.59 µM (inactive) | 12.9 µM (inactive) | 7.91 µM (inactive) | 10.4 µM (inactive) | 5.22 µM (inactive) | 17.7 µM (inactive) | 5.64 µM (inactive) | 17.1 µM (inactive) | 7.29 µM (inactive) | –
COC(=O)C(/C(=N/NC(N)=O)C(=O)Nc1ccc(C)cc1)c1nc2ccc([N+](=O)[O-])cc2nc1O (centres undefined) | > 100 µM (inactive) | 56.1 µM (inactive) | 70.1 µM (inactive) | > 100 µM (inactive) | 57.9 µM (inactive) | > 100 µM (inactive) | 37.6 | – | > 100 µM (inactive) | – | > 100 µM (inactive) | > 100 µM (inactive) | > 100 µM (inactive) | > 100 µM (inactive) | > 100 µM (inactive) | > 100 µM (inactive) | > 100 µM (inactive) | > 100 µM (inactive) | – | > 100 µM (inactive)
COc1cc(CNc2nc3cc(C(F)(F)F)ccc3nc2-c2ccccc2)cc(OC)c1OC | 32.3 µM (inactive) | 10.9 µM (inactive) | 19.8 µM (inactive) | 10.6 µM (inactive) | 25.2 µM (inactive) | 28.5 µM (inactive) | 17.3 | 89.7 µM (inactive) | – | 21 µM (inactive) | 21.3 µM (inactive) | 43.5 µM (inactive) | 40.6 µM (inactive) | 24.3 µM (inactive) | 39.2 µM (inactive) | 25.6 µM (inactive) | 5.79 µM (inactive) | 22.5 µM (inactive) | 18.5 µM (inactive) | 30.6 µM (inactive)
N#CC(C(=O)CCC(=O)Nc1cccc(C(F)(F)F)c1)c1ccccc1 (centres undefined) | > 100 µM (inactive) | > 100 µM (inactive) | > 100 µM (inactive) | > 100 µM (inactive) | > 100 µM (inactive) | – | > 100 | – | – | > 100 µM (inactive) | > 100 µM (inactive) | > 100 µM (inactive) | > 100 µM (inactive) | > 100 µM (inactive) | > 100 µM (inactive) | > 100 µM (inactive) | > 100 µM (inactive) | > 100 µM (inactive) | > 100 µM (inactive) | –
CCCCCCCCCCCCC1NC(=N)NC2(CCCO2)C1C(=O)OC (centres undefined) | 14.6 µM (inactive) | 17.5 µM (inactive) | 6.37 µM (inactive) | 3 µM (inactive) | 5.47 µM (inactive) | 3.34 µM (inactive) | 16.7 | 15.3 µM (inactive) | 1.67 µM (inactive) | 4.39 µM (inactive) | 2.23 µM (inactive) | 7.18 µM (inactive) | 3.84 µM (inactive) | 8.02 µM (inactive) | 1.97 µM (inactive) | 2.61 µM (inactive) | 3.61 µM (inactive) | 1.91 µM (inactive) | 1.53 µM (inactive) | –
N#C[C@H](c1nc2ccccc2s1)c1nc2ccccc2nc1Cl | > 100 µM (inactive) | > 100 µM (inactive) | 2.67 µM (inactive) | 13.4 µM (inactive) | > 100 µM (inactive) | > 100 µM (inactive) | 4.04 | – | 31 µM (inactive) | 15.3 µM (inactive) | > 100 µM (inactive) | 17.9 µM (inactive) | – | > 100 µM (inactive) | > 100 µM (inactive) | > 100 µM (inactive) | > 100 µM (inactive) | – | > 100 µM (inactive) | > 100 µM (inactive)
COc1cccc2c1CCc1c(-c3ccc(F)cc3)cc(-c3ccc4ccccc4n3)nc1-2 | > 100 µM (inactive) | > 100 µM (inactive) | – | > 100 µM (inactive) | > 100 µM (inactive) | > 100 µM (inactive) | > 100 | – | > 100 µM (inactive) | > 100 µM (inactive) | > 100 µM (inactive) | > 100 µM (inactive) | > 100 µM (inactive) | – | > 100 µM (inactive) | > 100 µM (inactive) | > 100 µM (inactive) | > 100 µM (inactive) | – | > 100 µM (inactive)
O=C(/C=C/c1cc(F)ccc1F)OCCc1ccccc1 | > 100 µM (inactive) | > 100 µM (inactive) | > 100 µM (inactive) | 91.6 µM (inactive) | 29.2 µM (inactive) | > 100 µM (inactive) | 35.6 | – | 49.4 µM (inactive) | > 100 µM (inactive) | > 100 µM (inactive) | > 100 µM (inactive) | > 100 µM (inactive) | – | > 100 µM (inactive) | 47.3 µM (inactive) | 83.6 µM (inactive) | 52.1 µM (inactive) | 16.4 µM (inactive) | 91.4 µM (inactive)
